Where two headings read alike, the source gives them in different places.
Assays:
[1] = biological target: T1, prostaglandin H synthase (Ovis aries, UniProt P05979); test: Inhibition of the activity of prostaglandin H synthase from sheep seminal vesicles; type: biochemical
T1 construct: H synthase from sheep seminal vesicles is obtained by the method described in the literature; from tissue; host or cells: sheep seminal vesicles
T1 sequence (P05979 25-600): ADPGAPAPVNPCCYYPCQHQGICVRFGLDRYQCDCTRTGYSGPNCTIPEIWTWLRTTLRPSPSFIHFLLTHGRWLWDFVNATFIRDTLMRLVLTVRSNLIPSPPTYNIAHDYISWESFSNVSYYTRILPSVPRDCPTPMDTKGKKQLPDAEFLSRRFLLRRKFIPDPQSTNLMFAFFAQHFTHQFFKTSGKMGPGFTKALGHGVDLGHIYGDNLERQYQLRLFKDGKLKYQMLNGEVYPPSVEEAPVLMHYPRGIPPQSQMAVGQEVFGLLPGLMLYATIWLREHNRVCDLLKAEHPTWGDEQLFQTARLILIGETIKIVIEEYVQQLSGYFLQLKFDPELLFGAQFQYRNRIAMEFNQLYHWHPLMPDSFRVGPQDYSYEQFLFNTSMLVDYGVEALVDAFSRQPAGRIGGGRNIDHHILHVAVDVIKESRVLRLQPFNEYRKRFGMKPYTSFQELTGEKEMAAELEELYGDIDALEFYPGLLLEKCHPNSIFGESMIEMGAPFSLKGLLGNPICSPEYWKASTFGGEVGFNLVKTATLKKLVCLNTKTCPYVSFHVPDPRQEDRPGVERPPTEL
Procedure: Prostaglanding H synthase from sheep seminal vesicles is obtained by the method described in the literature by Van der Oudaraa, F. J. G.; Buytenhek, M.; Methods Enzymol. 86, 60 (1982).
The enzyme activity is determined at 25° C. by polargraphic measurement of the oxygen consumption with a Clark electrode.
The measurement batch consists of […] ml^-1 of prostaglandin H synthase in 0.1 M Tris-HCl buffer pH=8.0, 5 mM tryptophan, 1 μM haemin and 0.124 mM arachidonic acid. The substances to be tested are dissolved in methylglycol and incubated with the enzyme in the absence of arachidonic acid for 10 minutes at 25° C. The enzyme reaction is started with arachidonic acid.
The titration curve of the inhibition and from this the concentration needed for 50% inhibition are determined by varying the active ingredient concentration.

[2] = biological target: T2, 15-lipoxygenase (Oryctolagus cuniculus, UniProt P12530); test: Inhibition of the activity of 15-lipoxygenase from rabbit reticulocytes; type: biochemical
T2 construct: The lipoxygenase from rabbit reticulocytes is obtained in an electrophoretically and immunologically pure form; from tissue; host or cells: rabbit reticulocytes
T2 sequence (P12530 1-663): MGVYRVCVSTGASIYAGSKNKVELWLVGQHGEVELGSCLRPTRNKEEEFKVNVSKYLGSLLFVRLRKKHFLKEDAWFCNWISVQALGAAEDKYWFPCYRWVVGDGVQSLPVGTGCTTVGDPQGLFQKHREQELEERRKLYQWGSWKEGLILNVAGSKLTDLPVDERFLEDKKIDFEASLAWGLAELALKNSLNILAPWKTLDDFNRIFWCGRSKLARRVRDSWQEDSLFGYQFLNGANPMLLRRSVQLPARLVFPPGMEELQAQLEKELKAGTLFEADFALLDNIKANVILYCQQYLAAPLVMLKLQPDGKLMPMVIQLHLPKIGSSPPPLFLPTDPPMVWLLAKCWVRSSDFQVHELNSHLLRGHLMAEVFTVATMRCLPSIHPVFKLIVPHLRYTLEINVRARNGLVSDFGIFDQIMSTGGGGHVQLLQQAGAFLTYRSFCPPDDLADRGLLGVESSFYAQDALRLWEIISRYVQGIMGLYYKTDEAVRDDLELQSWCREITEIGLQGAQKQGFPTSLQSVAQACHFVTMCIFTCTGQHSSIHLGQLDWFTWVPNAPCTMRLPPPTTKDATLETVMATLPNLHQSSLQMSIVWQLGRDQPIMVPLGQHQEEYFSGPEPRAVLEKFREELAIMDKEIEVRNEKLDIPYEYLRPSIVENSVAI
Procedure: The lipoxygenase from rabbit reticulocytes is obtained in an electrophoretically and immunologically pure form by the method described in the literature [S. M. Rapoport et al., Eur. J. Biochem. 96, 545 (1979]. The lipoxygenase activity is determined at 25° C. via amperometric measurement of the O2 consumption by means of a Clark electrode in the following system: 0.1 M potassium phosphate pH 7.4 containing 0.2% of sodium cholate and 0.53 mM linoleic acid. The enzyme concentration in the measurement bath is 25 nM. The substances to be tested are added as a solution in methylglycol (freshly distilled). […] The enzyme reaction is started by addition of sodium cholate and linoleic acid. The titration curve of the inhibition and from this the concentration needed for 50% inhibition are determined by varying the active ingredient concentration.

[3] = system: isolated tracheal spirals; test: Arachidonic acid-induced contraction of isolated tracheal spirals; type: cell-based, guinea-pig; conditions: Cavia porcellus, average, 35° C., 5 μM indomethacin present, read-out: ED50 (concentration-related contraction)
Procedure: (§1) Testing of antiasthmatic active qualities of triclosan and fenticlor in vitro is carried out on isolated tracheal spirals and lung parenchyma strips of adult guinea-pigs (250-500 g) of both sexes. The tracheal spirals are prepared by the method described by Constantine [J. W. Constantine et al., J. Pharm. Pharmacol. 17, 384 (1965)]. Particular emphasis is placed on complete removal of the surrounding connective tissue and on maintaining the integrity of the epithelium [N. A. Flavahan et al., J. Appl. Physiol. 58, 834 (1985)].
(§2) The lung parenchyma strip is prepared in accordance with the method described by Del Monte [L. Del Monte et a., Naunym-Schmiedebergs Arch. Pharmacol., 338, 417 (1988)]. The contraction of the isolated organs is determined as isotonic measurement of the path under standardised conditions [J. Slapke et al., Biomed. Biochim. Acta 42, 1309 (1983)] in a multiple organ bath.
A modified Krebs-Henseleit solution (pH=7.4) of the following composition is used for the studies (m×mol 1^-1): NaCl 134.8, KCl 5.9, Tris 10.02, CaCl2 1.82, MgCl2 1.145, glucose 1.11. Air is used for gassing. The bath temperature is 37° C. for the lung parenchyma strips and 35° C. for the tracheal spirals. […] In all studies, the contractions are induced by addition of arachidonic acid to the organ bath in increasing concentrations and are measured cumulatively. […]

[4] = system: isolated lung parenchyma strips; test: Arachidonic acid-induced contraction of isolated lung parenchyma strips; type: cell-based, guinea-pig; conditions: for inhibition at 50 µM: 5×10^-5 M
Procedure: as §1, §2
A modified Krebs-Henseleit solution (pH=7.4) of the following composition is used for the studies (m×mol 1^-1): NaCl 134.8, KCl 5.9, Tris 10.02, CaCl2 1.82, MgCl2 1.145, glucose 1.11. Air is used for gassing. The bath temperature is 37° C. for the lung parenchyma strips and 35° C. for the tracheal spirals. Conditioning of the preparations is performed several times with 5×10^-4 M acetylcholine to obtain the standardisation value, this substance subsequently being flushed out. In all studies, the contractions are induced by addition of arachidonic acid to the organ bath in increasing concentrations and are measured cumulatively. All the measurements are made in the present of 5 μM indomethacin.

[5] = literature statement; G. B. Kasting et al. cited for the non-steroidal drugs; cited from earlier work
[6] = system: arachidonic acid-induced bronchoconstriction; test: Arachidonic acid-induced bronchoconstriction in the guinea-pig; type: in vivo
Procedure: A bronchospasm is induced in non-sensitised guinea-pigs in the same experimental design as in Example 2 by intratracheal instillation of 2 mg/kg of Na arachidonate solution in phosphate buffer pH=7.4 [G. Becher et al., Z. Erkrankg. Atm.-org. 171, 85 (1988)].

[7] = system: ovalbumin-induced bronchoconstriction; test: Ovalbumin-induced bronchoconstriction in the ovalbumin-sensitised guinea-pig; type: in vivo
Procedure: Guinea-pigs are sensitised i.p. with 10 μg of ovalbumin and 100 mg of aluminium hydroxide in 0.5 ml of isotonic saline solution by the method of Anderson [P. Anderson, Brit. J. Pharmacol. 77, 301 (1982)]. After 14 days, the conscious animals are given a booster by inhalation of a 0.1% strength atomised ovalbumin solution. Only animals with a positive reaction are used for comparison from the fourth day after the booster. Guinea-pigs with a body weight of 450-550 g are were anaesthetised with 1.3 g/kg of ethylurethane i.p. Thereafter, a cannula is connected to the trachea. The animals are relaxed with 0.2 mg/kg pancuronium bromide i.v. and respirated in a tank respirator (f=20/min, p.=3 pPa, I:E=1:1). The animals breath in air from the room by the tracheal cannula led to the outside. The tidal volume VT is measured pneumota- chographically. 1 mg/kg of ovalbumin in 300 μl of water is instilled intratracheally to induce the spasm [G. Becher et al., Z. Erkrankg., Arm.-org. 166, 223 (1986)].
Statistical analysis of the results is carried out with the parameter-free U-test according to Mann and Whitney, p.≤0.05.

[8] = Cavia porcellus, 5 μM indomethacin
[9] = 100 mg/kg p.o. 2 hours before, Na arachidonate 2 mg/kg intratracheally
[10] = 100 mg/kg p.o. 2 hours before, ovalbumin 1 mg/kg intratracheally

Q: What does the source list for `Oc1c(Cl)cc(Cl)c(O)c1Cc1c(O)c(Cl)cc(Cl)c1O` [2,2'6,6'-Tetrahydroxy-3,3',5,5'-tetrachloro-diphenylmethane]?
A: IC50 [1]: 17 µM; IC50 [2]: 3.6 µM

Q: With `Oc1c(Cl)cc(Cl)c(Cl)c1Cc1c(O)c(Cl)cc(Cl)c1Cl` [2,2'-Dihydroxy-3,3',5,5',6,6'-hexachloro-diphenylmethane] as the molecule, how does the IC50 [1] read?
A: 17 µM

Q: What about the IC50 [2] of the same molecule?
A: 3.5 µM

Q: With `Oc1c(Br)cc(Br)cc1Cc1cc(Br)cc(Br)c1O` [2,2'-Dihydroxy-3,3',5,5'-tetrabromo-diphenylmethane] as the molecule, how does the IC50 [1] read?
A: 45 µM

Q: And the IC50 [2]?
A: 2.8 µM

Q: With `Oc1c(Cl)cc(Cl)cc1Cc1cc(Cl)cc(Cl)c1O` [2,2'-Dihydroxy-3,3',5,5'-tetrachloro-diphenylmethane] as the molecule, how does the IC50 ([1]; 25° C., pH=8.0, 0.124 mM arachidonic acid, 10 minutes preincubation, read-out: PG H synthase IC50) read?
A: 60 µM

Q: What about the IC50 ([2]; 25° C., pH 7.4, 0.53 mM linoleic acid, enzyme 25 nM, read-out: 15-LOX IC50) of the same molecule?
A: 9.5 µM

Q: What does the source list for `Oc1c(Cl)cc(Br)cc1Cc1cc(Br)cc(Cl)c1O` [2,2'-Dihydroxy-3,3'-dichloro-5,5'-dibromo-diphenylmethane]?
A: IC50 [1]: 28 µM; IC50 [2]: 3.8 µM

Q: Which IC50 [1] does the source give for `Cc1cc(Cc2ccccc2)cc(Cl)c1O` [2-Chloro-6-methyl-4-benzylphenol] here?
A: 35 µM

Q: What about the IC50 [2] of the same molecule?
A: 28 µM

Q: For `Oc1c(Br)cc(Cc2cc(Br)c(O)c(Br)c2)cc1Br` [4,4'-Dihydroxy-3,3',5,5'-tetrabromo-diphenylmethane], which IC50 [1] is on record?
A: 17 µM

Q: What about the IC50 [2] of the same molecule?
A: 5 µM

Q: For `Oc1c(Cl)cc(Cc2cc(Cl)c(O)c(Br)c2)cc1Br` [4,4'-Dihydroxy-3,3'-dibromo-5,5'-dichloro-diphenylmethane], which IC50 [1] is on record?
A: 180 µM

Q: And the IC50 [2]?
A: 10.5 µM

Q: What does the source list for `Cc1cc(Cl)cc(Cc2ccccc2)c1O` [4-Chloro-2-methyl-6-benzylphenol]?
A: IC50 [1]: 30 µM; IC50 [2]: 2.5 µM

Q: With `CCCCC/C=C\C/C=C\C/C=C\C/C=C\CCCC(=O)O` [Arachidonic acid, arachidonic acid] as the molecule, how does the EC50 [3] read?
A: 50 µM

Q: And the EC50 ([4]; Cavia porcellus, read-out: ED50 (concentration-related contraction))?
A: 100 µM

Q: Which inhibition at 50 µM [4, 8] does the source give for `NC1=NN(c2cccc(C(F)(F)F)c2)CC1` [BW 755 C] here?
A: 50%

Q: With `Oc1ccc(Cl)cc1Cc1ccccc1` [chlorophene, 2-Benzyl-4-chlorophenol] as the molecule, how does the IC50 [1] read?
A: 40 µM

Q: What about the IC50 [2] of the same molecule?
A: 2 µM

Q: For `O=C(O)Cc1ccccc1Nc1c(Cl)cccc1Cl` [diclofenac], which skin penetration [5] is on record?
A: inadequate skin penetration

Q: Which results are given for `Oc1ccc(Cl)cc1Sc1cc(Cl)ccc1O` [fenticlor, 2,2'-dihydroxy-5,5'-dichloro-diphenyl sulfide]?
A: IC50 [1]: 15.5 µM; inhibition of the maximum bronchospasm [6, 9]: 16.5%; time to return to the starting volume (tidal volume) [6, 9]: 25 min; inhibition of the arachidonic acid-induced bronchoconstrictive reaction ([6]; fenticlor 100 mg/kg p.o. 2 hours before, U-test p≤0.05): inhibited significantly (parameter-free U-test according to Mann and Whitney, p≤0.05) from the fifth minute; inhibition of the maximum bronchospasm [7, 10]: 60%; time to return to the starting volume (tidal volume) [7, 10]: 25 min; reduction of the allergic reaction (bronchoconstriction) ([7]; fenticlor 100 mg/kg p.o. 2 hours before, in comparison with controls, p≤0.05): reduced significantly; IC50 [2]: 1.4 µM; IC50 ([4]; Cavia porcellus, read-out: ID50): 5 µM

Q: With `COc1ccc2c(c1)c(CC(=O)O)c(C)n2C(=O)c1ccc(Cl)cc1` [indomethacin] as the molecule, how does the skin penetration [5] read?
A: inadequate skin penetration

Q: For `CC(C(=O)O)c1cccc(C(=O)c2ccccc2)c1` (centres unmarked) [ketoprofen], which skin penetration [5] is on record?
A: inadequate skin penetration

Q: For `CN1CCC(=C2c3ccccc3CC(=O)c3sccc32)CC1` [ketotifen], which inhibition at 1 µM ([4]; Cavia porcellus, 10^-6 M, 5 μM indomethacin) is on record?
A: 25%

Q: With `CC(Cc1ccc(O)c(O)c1)C(C)Cc1ccc(O)c(O)c1` (centres unmarked) [nordihydroguarjiaretic acid] as the molecule, how does the inhibition at 50 µM [4, 8] read?
A: 50%

Q: Which results are given for `Oc1cc(Cl)ccc1Oc1ccc(Cl)cc1Cl` [triclosan, 2,4,4'-trichloro-2'-hydroxy-diphenyl ether]?
A: IC50 [1]: 23 µM; IC50 [2]: 2.4 µM; inhibition of the arachidonic acid-induced contraction ([4]; 10^-6 M triclosan, arachidonic acid 10^-7 -10^3 M (so in the source), 5 μM indomethacin): complete inhibition; relaxation on isolated lung parenchyma strips ([4]; triclosan concentrations of >10^-6 M): pronounced dose-related relaxation
